Test results published in patent US11951094B2, “TLR2 modulator compounds, pharmaceutical compositions and uses thereof” (Axial Therapeutics, Inc., priority 2020, dated 2024).
Structures can show the parent of a compound that is named as a salt.

Target: TLR2 (Homo sapiens, UniProt O60603)
Assay: TLR2 agonist screening assay, HEK-Blue TLR2 reporter cell line (NF-kB-driven SEAP, absorbance at 600 nm)
Assay type: cell-based
Design: host or cells: HEK-293 (HEK-Blue TLR2 reporter cell line)
Conditions: HEK-Blue TLR2 reporter cells, agonist mode
Description: TLRs are a class of cell-surface receptors expressed on many different cell types that recognize conserved structural motifs present on pathogen-derived molecules. TLR2 recognizes bacteria-derived lipopeptides. […] Provided herein is an assay to identify and characterize the binding affinities of novel TLR2 agonists.
The in vitro TLR2 assay consists of a cell line that responds to TLR2 engagement by producing a factor that elicits a color change in the culture media and can be readily measured by various colorimetric detection methods. This assay enables the identification of existing and novel compounds that engage TLR2 and, by virtue of compound dilution, to approximate the binding affinity of these compounds for eliciting a TLR2 signal.
The TLR2 screening assay was developed from the HEK-Blue TLR2 reporter cell line that is commercially available from Invivogen (San Diego, CA). The reporter cell line consists of HEK-293 embryonic kidney cells that have been engineered to express TLR2 and with an NF-kB promoter driving expression of Secreted Alkaline Phosphatase (SEAP). Upon engagement of TLR2, downstream signaling results in activation of NF-kB pathway activation and secretion of SEAR In the presence of the detection reagent in the tissue culture media, SEAP mediates a color change from clear to indigo that is readily assessed by measuring absorbance at 600 nm.
HEK-Blue TLR2 reporter cells are cultured according to manufacturer's specifications until a confluence of 70-90%, at which point the cells are trypsinized, counted, and plated into 96-well plates at approximately 40,000 cells per well. Cells are cultured overnight and the TLR2 assay is performed 16-24 hours post-plating into 96 well plates.
Compounds are diluted from stocks dissolved in DMSO and a 1% DMSO final concentration is maintained in all testing wells.
The assay consists of removing the cell culture media after cells have been cultured overnight and replacing the media with HEK-Blue Detection media with TLR2 agonists at indicated dilution schemes. The Detection media contains a chemical substrate that turns from clear to indigo when acted upon by SEAP. The HEK-Blue cells are then cultured overnight in Detection media with diluted compounds. After overnight culture with agonists, each well of the plate is assayed in a plate reader at 600 nanometer absorbance.
• (1) HEK-Blue TLR2 cells are diluted in complete DME culture medium and plated into 96-well plates at 40,000 cells per well and cultured overnight. • (2) After 16-24 hours in culture, the media is removed and replaced with 200 microliters per well of HEK-Blue Detection media. • (3) TLR2 agonists are diluted 100-fold from DMSO stocks into each well, yielding a final DMSO concentration of 1% in all wells. • (3) Treated cells are cultured overnight and the following day are assayed in plate reader for Absorbance at 600 nanometer.
Following assay measurements utilizing either HEK-Blue detection or cytokine release, all data is analyzed with the GraphPad Prism8 statistical package to determine EC50, binding and activity metrics for the TLR2 modulators.
Data is generated using protocol described in Example 44.

TLR2, sequence (O60603 21-784): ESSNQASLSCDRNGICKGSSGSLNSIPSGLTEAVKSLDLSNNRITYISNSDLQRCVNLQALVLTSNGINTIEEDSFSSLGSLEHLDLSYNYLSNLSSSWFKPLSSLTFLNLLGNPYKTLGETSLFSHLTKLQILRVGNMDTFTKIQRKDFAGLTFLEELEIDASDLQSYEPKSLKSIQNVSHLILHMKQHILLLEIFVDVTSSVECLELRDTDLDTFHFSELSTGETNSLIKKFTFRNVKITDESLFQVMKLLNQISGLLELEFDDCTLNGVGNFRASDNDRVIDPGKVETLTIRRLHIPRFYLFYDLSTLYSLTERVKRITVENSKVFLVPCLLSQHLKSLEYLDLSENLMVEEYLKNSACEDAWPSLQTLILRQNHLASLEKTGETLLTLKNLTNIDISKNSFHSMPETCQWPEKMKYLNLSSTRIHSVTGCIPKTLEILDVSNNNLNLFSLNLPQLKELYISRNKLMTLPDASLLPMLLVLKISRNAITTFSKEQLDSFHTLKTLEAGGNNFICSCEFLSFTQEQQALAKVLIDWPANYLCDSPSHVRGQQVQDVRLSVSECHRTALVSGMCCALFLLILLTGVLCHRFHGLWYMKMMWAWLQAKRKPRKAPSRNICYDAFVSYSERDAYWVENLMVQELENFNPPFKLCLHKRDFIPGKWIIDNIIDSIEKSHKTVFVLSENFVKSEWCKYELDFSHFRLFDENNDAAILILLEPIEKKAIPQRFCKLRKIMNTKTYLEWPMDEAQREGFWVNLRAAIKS

SMILES	EC50 (average of all runs (Table 4))	EC50 (average of all runs (Table 3))
CCCCCCCCCCCCCCNC(=O)[C@@H]1CN(C(=O)c2ccc(C(=O)N3C[C@@H](C(=O)N[C@H]4C[C@@H]4c4ccccc4)[C@H](C(=O)N[C@H]4C[C@@H]4c4ccccc4)C3)cc2)C[C@@H]1OC (single isomer, unassigned) [Compound 061, (3S,4S)-1-(4-((3R*,4R*)-3-methoxy-4-(tetradecylcarbamoyl)pyrrolidine-1-carbonyl)benzoyl)-N3,N4-bis((1S,2R)-2-phenylcyclopropyl)pyrrolidine-3,4-dicarboxamide]		0.1 to 50 nM
CCCCCCCCCCCCCCNC(=O)[C@H]1CN(S(=O)(=O)c2ccc(C(=O)N3C[C@@H](C(=O)N[C@H]4C[C@@H]4c4ccccc4)[C@H](C(=O)N[C@H]4C[C@@H]4c4ccccc4)C3)cc2)CCN1C(C)=O [Compound 195, (3S,4S)-1-(4-(((R)-4-acetyl-3-(tetradecylcarbamoyl)piperazin-1-yl)sulfonyl)benzoyl)-N3,N4-bis((1S,2R)-2-phenylcyclopropyl)pyrrolidine-3,4-dicarboxamide]	> 1000 nM	
CCCCCCCCN1CCN(C(=O)c2ccc(C(=O)N3C[C@@H](C(=O)N[C@H]4C[C@@H]4c4ccccc4)[C@H](C(=O)N[C@H]4C[C@@H]4c4ccccc4)C3)cc2)CC1C(=O)NCCCCCC (stereo partly drawn) [Compound 018, (3S,4S)-1-(4-(3-(hexylcarbamoyl)-4-octylpiperazine-1-carbonyl)benzoyl)-N3,N4-bis((1S,2R)-2-phenylcyclopropyl)pyrrolidine-3,4-dicarboxamide formate]		351 to 1000 nM
CCCCCCCOC1CN(C(=O)c2ccc(C(=O)N3C[C@@H](C(=O)N[C@H]4C[C@@H]4c4ccccc4)[C@H](C(=O)N[C@H]4C[C@@H]4c4ccccc4)C3)cc2)C[C@H]1OCCCCCCC (stereo partly shown) [Compound 016]		> 1000 nM
CCCCCCNC(=O)[C@@H](CCNC(=O)CCCCCC)NC(=O)c1ccc(C(=O)N2C[C@@H](C(=O)N[C@H]3C[C@@H]3c3ccccc3)[C@H](C(=O)N[C@H]3C[C@@H]3c3ccccc3)C2)cc1 [Compound 119, (3S,4S)-1-(4-(((R)-4-heptanamido-1-(hexylamino)-1-oxobutan-2-yl)carbamoyl)benzoyl)-N3,N4-bis((1S,2R)-2-phenylcyclopropyl)pyrrolidine-3,4-dicarboxamide]	> 1000 nM	
CCCCCCCCCCCCCCNC(=O)C1CN(C(=O)c2ccc(C(=O)N3C[C@@H](C(=O)N[C@H]4C[C@@H]4c4ccccc4)[C@H](C(=O)N[C@H]4C[C@@H]4c4ccccc4)C3)cc2)CCO1 (stereo partly shown) [Compound 006]		351 to 1000 nM

Continued, values first:

EC50 (average of all runs (Table 4))	EC50 (average of all runs (Table 3))	SMILES
> 1000 nM		CCCCCCCC(=O)N1CCN(S(=O)(=O)c2ccc(C(=O)N3C[C@@H](C(=O)N[C@H]4C[C@@H]4c4ccccc4)[C@H](C(=O)N[C@H]4C[C@@H]4c4ccccc4)C3)cc2)C[C@@H]1C(=O)NCCCCCC [Compound 161, (3S,4S)-1-(4-(((R)-3-(hexylcarbamoyl)-4-octanoylpiperazin-1-yl)sulfonyl)benzoyl)-N3,N4-bis((1S,2R)-2-phenylcyclopropyl)pyrrolidine-3,4-dicarboxamide]
> 1000 nM		CCCCCCCCCCCCCCNC(=O)[C@@H]1CN(C(=O)c2ccc(C(=O)N3C[C@@H](C(=O)N[C@H]4C[C@@H]4c4ccccc4)[C@H](C(=O)N[C@H]4C[C@@H]4c4ccccc4)C3)cc2)CCN1C(=O)C(C)C [Compound 250, (3S,4S)-1-(4-((S)-4-isobutyryl-3-(tetradecylcarbamoyl)piperazine-1-carbonyl)benzoyl)-N3,N4-bis((1S,2R)-2-phenylcyclopropyl)pyrrolidine-3,4-dicarboxamide]
0.1 to 50 nM		CCCCCCCCCNC(=O)[C@H](CNC(=O)c1ccc(C(=O)N2C[C@@H](C(=O)N[C@H]3C[C@@H]3c3ccccc3)[C@H](C(=O)N[C@H]3C[C@@H]3c3ccccc3)C2)cc1)NC(=O)CCCCCCCCC [Compound 207, (3S,4S)-1-(4-(((S)-2-decanamido-3-(nonylamino)-3-oxopropyl)carbamoyl)benzoyl)-N3,N4-bis((1S,2R)-2-phenylcyclopropyl)pyrrolidine-3,4-dicarboxamide]
> 1000 nM		CCCCCCNC(=O)[C@H](CNC(=O)c1ccc(C(=O)N2C[C@@H](C(=O)N[C@H]3C[C@@H]3c3ccccc3)[C@H](C(=O)N[C@H]3C[C@@H]3c3ccccc3)C2)cc1)NC(=O)OCCCCCC [Compound 226, hexyl ((S)-3-(4-((3S,4S)-3,4-bis(((1S,2R)-2-phenylcyclopropyl)carbamoyl)pyrrolidine-1-carbonyl)benzamido)-1-(hexylamino)-1-oxopropan-2-yl)carbamate]
> 1000 nM		CCCCCCCCCCCCCCC(=O)NC1CCN(S(=O)(=O)c2ccc(C(=O)N3C[C@@H](C(=O)N[C@H]4C[C@@H]4c4ccccc4)[C@H](C(=O)N[C@H]4C[C@@H]4c4ccccc4)C3)cc2)CC1 [Compound 165, (3S,4S)-1-(4-((4-pentadecanamidopiperidin-1-yl)sulfonyl)benzoyl)-N3,N4-bis((1S,2R)-2-phenylcyclopropyl)pyrrolidine-3,4-dicarboxamide]
> 1000 nM		CCCNC(=O)[C@@H]1CN(C(=O)c2ccc(C(=O)N3C[C@@H](C(=O)N[C@H]4C[C@@H]4c4ccccc4)[C@H](C(=O)N[C@H]4C[C@@H]4c4ccccc4)C3)cc2)CCN1C(C)=O [Compound 265, (3S,4S)-1-(4-((S)-4-acetyl-3-(propylcarbamoyl)piperazine-1-carbonyl)benzoyl)-N3,N4-bis((1S,2R)-2-phenylcyclopropyl) pyrrolidine-3,4-dicarboxamide]
51 to 350 nM		CCCCCCCC[C@H]1CN(C(=O)c2ccc(C(=O)N3C[C@@H](C(=O)N[C@H]4C[C@@H]4c4ccccc4)[C@H](C(=O)N[C@H]4C[C@@H]4c4ccccc4)C3)cc2)C[C@@H]1C(=O)NCCCCCC (single isomer, unassigned) [Compound 112]
0.1 to 50 nM		CCCCCCCCNC(=O)[C@H](CNC(=O)c1ccc(C(=O)N2C[C@@H](C(=O)N[C@H]3C[C@@H]3c3ccccc3)[C@H](C(=O)N[C@H]3C[C@@H]3c3ccccc3)C2)cc1)NC(=O)CCCCCC [Compound 141, (3S,4S)-1-(4-(((S)-2-heptanamido-3-(octylamino)-3-oxopropyl)carbamoyl)benzoyl)-N3,N4-bis((1S,2R)-2-phenylcyclopropyl)pyrrolidine-3,4-dicarboxamide]
51 to 350 nM		CCCCCCCCCCCCCCNC(=O)[C@@H]1CN(S(=O)(=O)c2cccc(C(=O)N3C[C@@H](C(=O)N[C@H]4C[C@@H]4c4ccccc4)[C@H](C(=O)N[C@H]4C[C@@H]4c4ccccc4)C3)c2)CCN1C(C)=O [Compound 193, (3S,4S)-1-(3-(((S)-4-acetyl-3-(tetradecylcarbamoyl)piperazin-1-yl)sulfonyl)benzoyl)-N3,N4-bis((1S,2R)-2-phenylcyclopropyl)pyrrolidine-3,4-dicarboxamide]
51 to 350 nM		CCCCCCC(=O)N[C@@H](CNC(=O)c1ccc(C(=O)N2C[C@@H](C(=O)N[C@H]3C[C@@H]3c3ccccc3)[C@H](C(=O)N[C@H]3C[C@@H]3c3ccccc3)C2)cc1)C(=O)N[C@H]1C[C@@H]1c1ccccc1 [Compound 143, (3S,4S)-1-(4-(((S)-2-heptanamido-3-oxo-3-(((1S,2R)-2-phenylcyclopropyl)amino)propyl)carbamoyl)benzoyl)-N3,N4-bis((1S,2R)-2-phenylcyclopropyl)pyrrolidine-3,4-dicarboxamide]
